US20250129097
Where two headings read alike, the source gives them in different places.

Columns and labels:
[1] = ester bond, 18-membered ring, EDCI/HOBt/DIEA, DCM
[2] = from CCn1c(-c2cc(N3CCN(c4cccc(COC=O)c4)CC3)cnc2[C@H](C)OC)c(CC(C)(C)CO)c2cc([C@@H]3C[C@H]3CC[C@H](NC(=O)OC(C)(C)C)C(=O)N3CCC[C@@H](C(=O)O)N3)ccc21; ester bond; 18-membered ring; EDCI/HOBt/DIEA; DCM; 10.8 mM; 45.0 °C; 16.0 h

Compound: CCn1c(-c2cccnc2[C@H](C)OC)c2c3cc(ccc31)[C@@H]1C[C@H]1OC[C@H](NC(=O)OC(C)(C)C)C(=O)N1CCC[C@H](N1)C(=O)OCC(C)(C)C2
- ring closure, isolated yield ([1]; from CCn1c(-c2cccnc2[C@H](C)OC)c(CC(C)(C)CO)c2cc([C@@H]3C[C@H]3OC[C@H](NC(=O)OC(C)(C)C)C(=O)N3CCC[C@@H](C(=O)O)N3)ccc21, 13.8 mM, 20.0 °C, 12.0 h): 37%

Compound: CCn1c(-c2cc(N3CCN(c4cccc(COC=O)c4)CC3)cnc2[C@H](C)OC)c2c3cc(ccc31)[C@@H]1C[C@H]1CC[C@H](NC(=O)OC(C)(C)C)C(=O)N1CCC[C@H](N1)C(=O)OCC(C)(C)C2
- ring closure, yield after HPLC [2]: 4.8%

Compound: CCn1c(-c2cc(N3CCN(C(=O)OCc4ccccc4)CC3)cnc2[C@@H](C)OC)c(CC(C)(C)CO)c2cc([C@H]3C[C@@H]3N(C)C[C@@H](NC(=O)OC(C)(C)C)C(=O)N3CCC[C@@H](C(=O)OC)N3)ccc21
- ring closure, isolated yield ([1]; the molecule shown is the open-chain precursor, 10.3 mM, 35.0 °C): 16%
